# “Also recorded” adds a separate entry of the source. Where a name gives a salt, the structure may show the parent alone. Read-outs that look alike come from different tables or passages of the source.
# Assays:
# MMP-1 = MMP-1 (Homo sapiens (Human), UniProt P03956); experiment: Enzyme inhibition, MMP-1 catalytic domain; type: biochemical
# Excerpt: (§1) Human recombinant active MMP-2 and MMP-7, and the catalytic domains of MMP-3 and MMP-14/MT1-MMP were purchased from EMD Chemicals, Inc. (San Diego, Calif., USA); human recombinant catalytic domains of MMP-1, MMP-8, and MMP-9 were purchased from Enzo Life Sciences, Inc. (Farmingdale, N.Y., USA); human recombinant active ADAM9 and ADAM10 were purchased from R&D Systems (Minneapolis, Minn., USA). Fluorogenic substrates MOCAc-Pro-Leu-Gly-Leu-A2pr(Dnp)-Ala-Arg-NH2 (for MMP-2, MMP-7, MMP-9 and MMP-14) and MOCAc-Arg-Pro-Lys-Pro-Val-Glu-Nva-Trp-Arg-Lys(Dnp)-NH2 (for MMP-3) were purchased from Peptides International (Louisville, Ky., USA); Mca-KPLGL-Dpa-AR-NH2 (for MMP-1, MMP-8 and ADAM10) and Mca-PLAQAV-Dpa-RSSSR-NH2 (for ADAM9) were purchased from R&D Systems (Minneapolis, Minn., USA). The Km values for MMP-2, MMP-9 and MMP-14 were the same as previously reported by Gooyit et al. ((2013) J. Med. Chem. 56(20):8139-8150). Inhibitor stock solutions (10 mM) were prepared freshly in DMSO before enzyme inhibition assays. We followed the same methodology for enzyme inhibition studies as reported before by Page-McCaw et al. ((2007) Nat Rev Mol Cell Biol 8(3):221-233). Enzyme inhibition studies were carried out using a Cary Eclipse fluorescence spectrophotometer (Varian, Walnut Creek, Calif., USA).
# MMP-2 [1] = target: T1, MMP-2 (Homo sapiens (Human), UniProt P08253); experiment: Enzyme inhibition, MMP-2; type: biochemical
# Excerpt: as §1
# Target sequence in this assay (P08253 110-660): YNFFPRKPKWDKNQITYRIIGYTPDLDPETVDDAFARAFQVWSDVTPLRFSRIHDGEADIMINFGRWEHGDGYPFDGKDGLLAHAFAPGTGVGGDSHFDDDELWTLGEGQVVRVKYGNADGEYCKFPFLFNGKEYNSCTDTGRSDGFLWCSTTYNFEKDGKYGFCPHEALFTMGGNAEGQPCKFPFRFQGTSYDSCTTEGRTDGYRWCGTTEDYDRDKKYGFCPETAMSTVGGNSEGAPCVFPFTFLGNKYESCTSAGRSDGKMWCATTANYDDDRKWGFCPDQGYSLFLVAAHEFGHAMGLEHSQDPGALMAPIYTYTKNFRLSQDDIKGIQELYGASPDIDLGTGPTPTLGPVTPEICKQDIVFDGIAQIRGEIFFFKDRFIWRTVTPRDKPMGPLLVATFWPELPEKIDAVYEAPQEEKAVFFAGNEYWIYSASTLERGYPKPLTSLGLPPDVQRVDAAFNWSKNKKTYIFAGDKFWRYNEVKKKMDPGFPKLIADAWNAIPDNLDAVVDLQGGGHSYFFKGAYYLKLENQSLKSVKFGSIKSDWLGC
# MMP-3 = MMP-3 (Homo sapiens (Human), UniProt P08254); experiment: Enzyme inhibition, MMP-3 catalytic domain; type: biochemical
# Excerpt: as §1
# MMP-7 = MMP-7 (Homo sapiens (Human), UniProt P09237); experiment: Enzyme inhibition, MMP-7; type: biochemical
# Excerpt: as §1
# MMP-8 = MMP-8 (Homo sapiens (Human), UniProt P22894); experiment: Enzyme inhibition, MMP-8 catalytic domain; type: biochemical
# Experimental: (§5) Inhibitor stock solutions (10 mM) were prepared freshly in DMSO before enzyme inhibition assays. […] Enzyme inhibition studies were carried out using a Cary Eclipse fluorescence spectrophotometer (Varian, Walnut Creek, Calif., USA).
# MMP-9 [2] = target: T2, MMP-9 (Homo sapiens (Human), UniProt P14780); experiment: Enzyme inhibition, MMP-9 catalytic domain; type: biochemical; details: for residence time: calculated as 1/koff
# Target sequence in this assay (P14780 107-444): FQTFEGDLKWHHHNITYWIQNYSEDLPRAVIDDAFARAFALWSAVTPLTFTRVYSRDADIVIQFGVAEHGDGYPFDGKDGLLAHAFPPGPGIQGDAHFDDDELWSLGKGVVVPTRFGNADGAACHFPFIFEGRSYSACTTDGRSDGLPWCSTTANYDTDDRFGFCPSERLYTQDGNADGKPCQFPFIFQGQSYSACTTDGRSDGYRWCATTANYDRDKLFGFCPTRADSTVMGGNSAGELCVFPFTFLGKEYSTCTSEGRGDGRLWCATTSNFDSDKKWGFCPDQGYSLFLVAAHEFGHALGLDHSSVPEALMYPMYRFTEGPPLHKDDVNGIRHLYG
# Experimental: as §5
# MMP-14 = MMP-14 (Homo sapiens (Human), UniProt P50281); experiment: Enzyme inhibition, MMP-14 catalytic domain; type: biochemical
# Excerpt: as §1
# ADAM9 = ADAM9 (Homo sapiens (Human), UniProt Q13443); experiment: Enzyme inhibition, ADAM9; type: biochemical
# Excerpt: as §1
# ADAM10 = ADAM10 (Homo sapiens (Human), UniProt O14672); experiment: Enzyme inhibition, ADAM10; type: biochemical
# Excerpt: as §1
# [3] = Stability in the buffers of the kinetic assays; type: physicochemical
# [4] = test system: diabetic wounds of db/db mice; experiment: Excisional diabetic wound model, wound closure; type: in vivo, mouse
# Experimental: Female diabetic db/db mice (BKS.Cg-Dock7^m+/+Lepr^db/J, 8-weeks old) were purchased from the Jackson Laboratory (Bar Harbor, Me., USA) and fed 5001 Laboratory Rodent Diet (LabDiet, St. Louis, Mo., USA) and water ad libitum. Mice were housed in polycarbonate shoebox cages with hardwood bedding at 72±2° F. and 12 h light/12 h dark.
# The dorsal area of the mice was shaved, and a single excisional 8-mm diameter wound (50 mm^2) was made on the dorsal thorax with a biopsy punch (Miltex, Plainsboro, N.J., USA) while the animals were under isofluorane anesthesia. Wounds were covered with Tegaderm™ dressing (3M Company, St. Paul, Minn., USA). Topical treatment was started the next day.
# Mice were anesthetized with isofluorane, and wounds were photographed with an Olympus SP-800 UZ camera mounted on a tripod at a fixed distance; a ruler was included in the digital photo. Wound areas were calculated using NIH ImageJ software (version 1.48) and expressed as percent change in wound area relative to day 0.
# (§2) Wound measurements were taken on days 0, 7, 10, and 14. Animals were sacrificed on day 14 and wounds analyzed by H&E staining, TUNEL, and in-situ zymography.
# Female diabetic db/db (BKS.Cg-Dock7m+/+Leprdb/J, 8-weeks old, 38±3 g, n=24) were used for this study. Wounds were inflicted as described and the following day the wounds were treated topically with MMP-8 (50 μL of 20 μg/mL MMP-8 in reaction buffer) or vehicle (50 μL reaction buffer) once a day for 14 days. The reaction buffer consisted of 50 mM Tris (pH 7.5), 10 mM CaCl2, 150 mM NaCl, and 0.05% (w/v) Brij-35 (polyoxyethyleneglycoli dodecyl ether). Digital photographs of the wounds were taken on days 0, 7, 10, and 14 while animals were under isoflurane anesthesia. On days 7 and 14, 12 mice (n=6 per group) were sacrificed. The wounds were excised, embedded in OCT compound, and cryosectioned for histological evaluation and in-situ zymography.
# (§3) Mice were sacrificed on days 7, 10, and 14, and the excised wounds were embedded in OCT compound and cryosectioned for histological evaluation and in situ zymography.
# [5] = test system: re-epithelialization of diabetic wounds; experiment: H&E staining, re-epithelialization of diabetic wounds; type: in vivo, mouse; details: db/db mice, ND-336 0.1 mg/wound/day, day 14
# Experimental: as §2
# Female diabetic db/db (BKS.Cg-Dock7m+/+Leprdb/J, 8-weeks old, 38±3 g, n=24) were used for this study. Wounds were inflicted as described and the following day the wounds were treated topically with MMP-8 (50 μL of 20 μg/mL MMP-8 in reaction buffer) or vehicle (50 μL reaction buffer) once a day for 14 days. The reaction buffer consisted of 50 mM Tris (pH 7.5), 10 mM CaCl2, 150 mM NaCl, and 0.05% (w/v) Brij-35 (polyoxyethyleneglycoli dodecyl ether). […]
# Wounds were embedded in optimal cutting temperature (OCT, Tissue-Tek, Sakura Finetek, Torrance, Calif., USA) compound and cryosectioned at 12-μm thickness for hematoxylin-eosin (H&E) and at 8-μm thickness for in-situ zymography. Re-epithelialization was assessed on a fluorescent microscope (Nikon Eclipse 90i, Nikon Instruments, Inc., Melville, N.Y., USA). Apoptotic cells in wound sections were assessed using a modified terminal deoxynucleotidyl transferase-mediated dUTP-nick-end labeling (TUNEL) assay kit, following the manufacturer's instructions (Trevigen, Inc., Gaithersburg, Md., USA). […] After fixation in 4% paraformaldehyde in PBS, cells were counterstained with DAPI and the images were visualized by fluorescence microscopy. […]
# [6] = test system: apoptotic cells in diabetic wounds; experiment: TUNEL apoptosis detection in diabetic wounds; type: in vivo, mouse; details: db/db mice, ND-336 0.1 mg/wound/day, day 14
# Excerpt: as §2, §3
# Wounds were embedded in optimal cutting temperature (OCT, Tissue-Tek, Sakura Finetek, Torrance, Calif., USA) compound and cryosectioned at 12-μm thickness for hematoxylin-eosin (H&E) and at 8-μm thickness for in-situ zymography. Re-epithelialization was assessed on a fluorescent microscope (Nikon Eclipse 90i, Nikon Instruments, Inc., Melville, N.Y., USA). Apoptotic cells in wound sections were assessed using a modified terminal deoxynucleotidyl transferase-mediated dUTP-nick-end labeling (TUNEL) assay kit, following the manufacturer's instructions (Trevigen, Inc., Gaithersburg, Md., USA). For in-situ zymography, unfixed cryostat sections of wound tissues were incubated in reaction buffer (50 mM TBS pH 7.6) containing DQ-gelatin or DQ-collagen (Molecular Probes, Inc., Eugene, Oreg., USA) at 37° C. for 6 h. After fixation in 4% paraformaldehyde in PBS, cells were counterstained with DAPI and the images were visualized by fluorescence microscopy. […]
# [7] = test system: MMP-9 activity (gelatinase) in diabetic wounds; experiment: In-situ zymography with DQ-gelatin; type: in vivo, mouse; details: db/db mice
# Excerpt: (§6) In-situ zymography detects MMP activity in vivo using the fluorogenic substrates: DQ-gelatin for gelatinase (MMP-2 and MMP-9) activity and DQ-collagen for collagenase (MMP-1, MMP-8, and MMP-13) activity.
# (§7) Wounds were embedded in optimal cutting temperature (OCT, Tissue-Tek, Sakura Finetek, Torrance, Calif., USA) compound and cryosectioned at 12-μm thickness for hematoxylin-eosin (H&E) and at 8-μm thickness for in-situ zymography. […] For in-situ zymography, unfixed cryostat sections of wound tissues were incubated in reaction buffer (50 mM TBS pH 7.6) containing DQ-gelatin or DQ-collagen (Molecular Probes, Inc., Eugene, Oreg., USA) at 37° C. for 6 h. After fixation in 4% paraformaldehyde in PBS, cells were counterstained with DAPI and the images were visualized by fluorescence microscopy. […] The images for in-situ zymography and vascular density were obtained by confocal microscopy.
# [8] = test system: MMP-8 activity (collagenase) in diabetic wounds; experiment: In-situ zymography with DQ-collagen; type: in vivo, mouse; details: db/db mice
# Excerpt: as §6, §7
# IL-6 = IL-6 in wound tissue by ELISA; type: in vivo, mouse; details: db/db mice, versus vehicle
# Experimental: as §3
# (§4) Wound tissues (n=3 mice/group) were harvested and immediately frozen in liquid nitrogen on days 1, 3, and 14. The extracted tissues were homogenized in cold lysis buffer containing free-EDTA protease inhibitor cocktail (Pierce, Rockford, Ill., USA). The lysates were analyzed for protein concentration by the Bradford protein assay (Bio-Rad, Hercules, Calif., USA). The levels of IL-6, TGF-β1 and VEGF in the lysates were determined by ELISA, following the manufacturer's protocol (Abcam, Cambridge, Mass., USA). The cytokine levels for each mouse sample were expressed in picograms/mg tissue.
# TGF-β1 = TGF-β1 in wound tissue by ELISA; type: in vivo, mouse; details: db/db mice, versus vehicle
# Experimental: as §3, §4
# VEGF = VEGF in wound tissue by ELISA; type: in vivo, mouse; details: db/db mice
# Experimental: as §3, §4
# CD31 = experiment: Angiogenesis by anti-CD31 staining; type: in vivo, mouse; details: db/db mice wounds
# Experimental: Wounds were embedded in optimal cutting temperature (OCT, Tissue-Tek, Sakura Finetek, Torrance, Calif., USA) compound and cryosectioned at 12-μm thickness for hematoxylin-eosin (H&E) and at 8-μm thickness for in-situ zymography. Re-epithelialization was assessed on a fluorescent microscope (Nikon Eclipse 90i, Nikon Instruments, Inc., Melville, N.Y., USA). Apoptotic cells in wound sections were assessed using a modified terminal deoxynucleotidyl transferase-mediated dUTP-nick-end labeling (TUNEL) assay kit, following the manufacturer's instructions (Trevigen, Inc., Gaithersburg, Md., USA). For in-situ zymography, unfixed cryostat sections of wound tissues were incubated in reaction buffer (50 mM TBS pH 7.6) containing DQ-gelatin or DQ-collagen (Molecular Probes, Inc., Eugene, Oreg., USA) at 37° C. for 6 h. After fixation in 4% paraformaldehyde in PBS, cells were counterstained with DAPI and the images were visualized by fluorescence microscopy. Immunofluorescent detection of vascular density was performed by staining the tissues with Alexa Fluor 488 anti-mouse CD31 (BioLegend, San Diego, Calif., USA), followed by staining the nuclei with DAPI. The images for in-situ zymography and vascular density were obtained by confocal microscopy.
# MMP-2 [9] = target: T1, MMP-2; details: for comparison; cited from earlier work
# Target sequence in this assay (P08253 110-660, species assumed): as the sequence (P08253 110-660) above
# MMP-9 [10] = target: T2, MMP-9; details: for comparison; cited from earlier work
# Target sequence in this assay (P14780 94-707, species assumed): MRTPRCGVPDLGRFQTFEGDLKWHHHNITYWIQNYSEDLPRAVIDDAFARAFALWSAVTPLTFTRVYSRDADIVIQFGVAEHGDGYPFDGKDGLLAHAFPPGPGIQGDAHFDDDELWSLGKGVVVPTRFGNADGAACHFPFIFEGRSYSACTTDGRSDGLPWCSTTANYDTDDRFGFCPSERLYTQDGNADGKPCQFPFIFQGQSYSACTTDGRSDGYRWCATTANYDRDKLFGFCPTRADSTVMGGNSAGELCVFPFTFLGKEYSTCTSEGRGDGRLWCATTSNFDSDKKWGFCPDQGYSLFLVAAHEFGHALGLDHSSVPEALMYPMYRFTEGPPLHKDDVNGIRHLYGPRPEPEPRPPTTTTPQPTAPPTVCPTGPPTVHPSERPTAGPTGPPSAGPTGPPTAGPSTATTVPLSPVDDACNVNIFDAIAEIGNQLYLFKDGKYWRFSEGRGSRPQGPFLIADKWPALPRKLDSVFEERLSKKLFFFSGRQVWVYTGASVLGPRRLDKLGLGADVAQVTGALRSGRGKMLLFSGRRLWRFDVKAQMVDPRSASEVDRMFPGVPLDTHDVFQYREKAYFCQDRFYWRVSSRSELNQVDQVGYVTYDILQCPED
# [11] = test system: ultraviolet B irradiated murine skin; details: Kobayashi & Shinkai (2005); cited from earlier work
# [12] = topical ND-336 0.1 mg/wound/day
# [13] = combination study: ND-336 0.05 mg/wound/day, MMP-8 1 μg/wound/day
# MMP-8, sequence (P22894 100-262): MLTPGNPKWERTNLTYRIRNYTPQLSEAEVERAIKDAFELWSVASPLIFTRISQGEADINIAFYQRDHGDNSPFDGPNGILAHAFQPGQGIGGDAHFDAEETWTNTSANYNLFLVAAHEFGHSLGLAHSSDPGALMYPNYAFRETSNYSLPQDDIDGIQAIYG
# MMP-1, sequence (P03956 100-269): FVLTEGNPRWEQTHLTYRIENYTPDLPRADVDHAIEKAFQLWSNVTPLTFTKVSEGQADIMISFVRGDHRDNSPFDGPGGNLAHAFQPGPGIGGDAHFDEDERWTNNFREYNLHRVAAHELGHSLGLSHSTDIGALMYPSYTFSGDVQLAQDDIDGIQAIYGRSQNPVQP
# ADAM9, sequence (Q13443 whole entry, looked up, change not shown): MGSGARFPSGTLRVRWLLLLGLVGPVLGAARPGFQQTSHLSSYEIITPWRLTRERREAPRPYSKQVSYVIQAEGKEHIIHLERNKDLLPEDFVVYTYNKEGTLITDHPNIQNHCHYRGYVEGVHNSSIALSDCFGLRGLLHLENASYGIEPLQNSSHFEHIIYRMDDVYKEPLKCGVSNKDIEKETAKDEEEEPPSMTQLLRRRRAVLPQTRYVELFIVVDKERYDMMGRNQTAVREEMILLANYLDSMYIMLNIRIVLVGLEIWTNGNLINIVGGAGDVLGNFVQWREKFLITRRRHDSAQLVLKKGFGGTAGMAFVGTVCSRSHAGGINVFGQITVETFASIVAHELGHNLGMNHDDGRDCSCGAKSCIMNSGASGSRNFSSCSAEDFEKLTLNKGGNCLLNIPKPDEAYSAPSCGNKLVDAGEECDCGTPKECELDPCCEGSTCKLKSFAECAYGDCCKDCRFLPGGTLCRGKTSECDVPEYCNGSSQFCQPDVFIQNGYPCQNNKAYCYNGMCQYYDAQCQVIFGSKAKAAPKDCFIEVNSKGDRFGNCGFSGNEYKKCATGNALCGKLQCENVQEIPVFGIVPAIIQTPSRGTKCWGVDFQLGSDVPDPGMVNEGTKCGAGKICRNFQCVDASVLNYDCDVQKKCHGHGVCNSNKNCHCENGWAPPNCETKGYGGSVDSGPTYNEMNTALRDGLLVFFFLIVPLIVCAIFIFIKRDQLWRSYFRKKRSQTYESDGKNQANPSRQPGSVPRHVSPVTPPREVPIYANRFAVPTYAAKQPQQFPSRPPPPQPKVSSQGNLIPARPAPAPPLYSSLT
# MMP-3, sequence (P08254 100-272): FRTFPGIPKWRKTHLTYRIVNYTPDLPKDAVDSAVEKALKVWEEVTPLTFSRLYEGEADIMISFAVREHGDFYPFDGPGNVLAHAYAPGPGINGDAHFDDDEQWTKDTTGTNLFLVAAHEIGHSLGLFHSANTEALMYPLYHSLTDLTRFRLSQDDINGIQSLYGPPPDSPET
# ADAM10, sequence (O14672 214-672): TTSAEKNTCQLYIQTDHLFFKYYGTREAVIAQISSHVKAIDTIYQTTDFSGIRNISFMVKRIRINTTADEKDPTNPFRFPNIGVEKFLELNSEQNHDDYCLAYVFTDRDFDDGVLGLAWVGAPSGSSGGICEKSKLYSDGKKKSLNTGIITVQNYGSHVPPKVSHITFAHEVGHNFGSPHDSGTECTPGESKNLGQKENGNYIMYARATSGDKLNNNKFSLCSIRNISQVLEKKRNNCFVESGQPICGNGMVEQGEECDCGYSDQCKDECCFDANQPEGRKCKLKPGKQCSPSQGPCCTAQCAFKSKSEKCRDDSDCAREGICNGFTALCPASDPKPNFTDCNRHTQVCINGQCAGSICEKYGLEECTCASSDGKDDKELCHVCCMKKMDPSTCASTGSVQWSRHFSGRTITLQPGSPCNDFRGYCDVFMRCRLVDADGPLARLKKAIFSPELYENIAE
# MMP-7, sequence (P09237 95-267): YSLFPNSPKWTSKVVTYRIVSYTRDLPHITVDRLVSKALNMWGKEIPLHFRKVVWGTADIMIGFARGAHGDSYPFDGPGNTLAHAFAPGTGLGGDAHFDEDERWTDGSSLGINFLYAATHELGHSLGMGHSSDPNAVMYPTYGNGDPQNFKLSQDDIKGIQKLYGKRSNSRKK
molecule,measurement,setting,value
"NCc1ccc(Oc2ccc(S(=O)(=O)CC3CS3)cc2)cc1 (centres unmarked) [ND-336, (4-(4-((Thiiran-2-ylmethyl)sulfonyl)phenoxy)phenyl)methanamine HCl salt]",inhibition of MMP-1 (in words),MMP-1,marginal to no inhibition
same,inhibition at 100 µM,"MMP-1; @ 100 μM, catalytic domain",4%
same,"Inhibition type, MMP-2",MMP-2 [1],slow-binding
same,inhibition of MMP-3 (in words),MMP-3,marginal to no inhibition
same,inhibition at 100 µM,"MMP-3; @ 100 μM, catalytic domain",23%
same,inhibition of MMP-7 (in words),MMP-7,marginal to no inhibition
same,inhibition at 100 µM,MMP-7; @ 100 μM,1%
same,"Inhibition type, MMP-8",MMP-8; HCl salt,linear noncompetitive; also recorded: linear non-competitive
same,"Inhibition type, MMP-9",MMP-9 [2],slow-binding
same,lower Ki for MMP-9 than for MMP-8,MMP-9 [2]; MMP-9 versus MMP-8,50 fold
same,"Inhibition type, MMP-14",MMP-14,slow-binding
same,inhibition at 100 µM,ADAM9; @ 100 μM,31%
same,inhibition of ADAM9 (in words),ADAM9; printed as ADAMS,marginal to no inhibition
same,inhibition of ADAM10 (in words),ADAM10,marginal to no inhibition
same,inhibition at 100 µM,ADAM10; @ 100 μM,14%
same,stability in the buffers used in the kinetic assays,[3],stable
same,wound healing in dose-response study,"[4]; 0.05 mg/wound/day, day 14, versus vehicle and 0.025 and 0.01 mg/wound/day",significant better healing
same,diabetic wound healing (in words),[4]; [12],accelerated diabetic wound healing
same,wound healing faster than vehicle,[4]; [12],about 2 fold
same,re-epithelialization (H&E),[5],almost complete re-epithelialization
same,apoptosis (TUNEL),[6],significantly decreased
same,MMP-9 activity in wounds (DQ-gelatin),[7]; ND-336 0.1 mg/wound/day,significantly decreased
same,MMP-9 activity in wounds (DQ-gelatin),[7]; [13],inhibition of MMP-9
same,MMP-8 activity in wounds (DQ-collagen),[8]; ND-336 0.1 mg/wound/day,not affected
same,MMP-8 activity in wounds (DQ-collagen),[8]; [13],presence of MMP-8
same,Area-under-the-curve (AUC) for IL-6,IL-6,significantly reduced
same,IL-6 concentrations in wounds,"IL-6; days 1, 3, 14",significantly reduced
same,Area-under-the-curve (AUC) for TGF-β1,TGF-β1,significantly reduced
same,levels of TGF-β1 in wounds,"TGF-β1; days 1, 3, 14",significantly reduced
same,VEGF concentrations in the wounds,VEGF; compared to vehicle,increased
same,Area-under-the-curve (AUC) for VEGF,VEGF; versus vehicle,significantly increased
same,angiogenesis by anti-CD31 antibodies,CD31,increased angiogenesis
CCOC(=O)Nc1ccc(Oc2ccc(S(=O)(=O)CC3CS3)cc2)cc1 (centres unmarked) [ND-394],"Inhibition type, MMP-8",MMP-8,non-competitive
same,Ki,MMP-8,15 µM
same,"Inhibition type, MMP-9",MMP-9 [2],slow-binding
same,Ki,MMP-9 [2],0.86 µM
same,residence time,MMP-9 [2],25.6 min
CCOC(=O)Oc1ccc(Oc2ccc(S(=O)(=O)CC3CS3)cc2)cc1 (centres unmarked) [ND-395],Ki,MMP-8,11 µM
same,"Inhibition type, MMP-9",MMP-9 [2],slow-binding
same,Ki,MMP-9 [2],0.93 µM
same,residence time,MMP-9 [2],119 min
"TIMP1: endogenous protein inhibitor, tissue inhibitor of metalloproteinase",residence time of TIMP on MMP-2,MMP-2 [9],6.9 min
same,residence time of TIMP on MMP-9,MMP-9 [10],7.9 min
CCC(=C/[C@H](C)C/C=C/C(C)=C/[C@@H](C)C(=O)[C@@H](C)[C@H](O)[C@@H](C)C/C(C)=C/C(=O)O)/C=C/[C@@H]1OC(=O)C=C[C@@H]1C [leptomycin B],inflammation in ultraviolet B irradiated murine skin,[11],suppressed inflammation
